Data from ChEMBL document CHEMBL1201862, “PubChem BioAssay data set” (2004).
Active and inactive are the calls of the source.

Assays:
Candida albicans [1] = test: growth inhibition of azole-resistant C. albicans, dose response, CaCi-8 strain, Alamar Blue, dry powder, set 2 (AID 488909); format: functional, organism-based
Candida albicans [2] = test: fluconazole resistance reversal in C. albicans, dose response, CaCi-2 strain, Alamar Blue, dry powder, set 4 (AID 488943); format: functional, organism-based
Candida albicans [3] = test: growth inhibition of resistant C. albicans, dose response, CaCi-8 strain, fluconazole, dry powder, set 4 (AID 488950); format: functional, organism-based
[4] = target: T1, Sentrin-specific protease 7 (Homo sapiens, UniProt Q9BQF6); test: SENP7 protease inhibitors, SAR follow-up, biochemical, luminescence (AID 504497); format: functional
T1 sequence (Q9BQF6 whole entry): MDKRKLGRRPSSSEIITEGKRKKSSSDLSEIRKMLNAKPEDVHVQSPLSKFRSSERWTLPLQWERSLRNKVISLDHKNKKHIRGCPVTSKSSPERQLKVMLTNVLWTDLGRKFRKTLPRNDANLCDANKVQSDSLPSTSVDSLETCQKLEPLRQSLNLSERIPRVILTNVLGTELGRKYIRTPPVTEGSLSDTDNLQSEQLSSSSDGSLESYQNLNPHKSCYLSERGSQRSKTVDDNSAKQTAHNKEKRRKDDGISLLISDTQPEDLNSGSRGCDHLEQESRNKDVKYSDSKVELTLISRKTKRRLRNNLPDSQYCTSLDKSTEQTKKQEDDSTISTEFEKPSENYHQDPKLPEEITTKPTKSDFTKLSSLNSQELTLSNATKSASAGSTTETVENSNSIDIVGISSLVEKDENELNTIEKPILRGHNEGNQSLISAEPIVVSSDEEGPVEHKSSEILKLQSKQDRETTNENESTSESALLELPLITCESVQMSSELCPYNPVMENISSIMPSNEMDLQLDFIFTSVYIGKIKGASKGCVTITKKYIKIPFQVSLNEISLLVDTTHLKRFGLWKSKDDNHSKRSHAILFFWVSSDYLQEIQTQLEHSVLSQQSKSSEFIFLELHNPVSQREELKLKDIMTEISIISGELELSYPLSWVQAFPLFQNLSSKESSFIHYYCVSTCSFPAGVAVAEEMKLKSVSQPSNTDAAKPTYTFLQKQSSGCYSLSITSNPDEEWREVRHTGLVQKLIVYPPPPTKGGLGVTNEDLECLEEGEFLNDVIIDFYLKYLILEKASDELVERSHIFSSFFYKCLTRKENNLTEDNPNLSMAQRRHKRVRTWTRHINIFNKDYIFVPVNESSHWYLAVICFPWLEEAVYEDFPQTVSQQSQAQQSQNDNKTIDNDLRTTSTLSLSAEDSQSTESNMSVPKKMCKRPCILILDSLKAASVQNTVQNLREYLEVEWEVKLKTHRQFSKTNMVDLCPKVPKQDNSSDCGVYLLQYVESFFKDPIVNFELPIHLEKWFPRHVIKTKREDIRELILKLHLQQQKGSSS

[5] = target: T2, Sentrin-specific protease 8 (Homo sapiens, UniProt Q96LD8); test: SENP8 protease inhibitors, SAR follow-up, biochemical, luminescence (AID 504501); format: functional
T2 sequence (Q96LD8 whole entry): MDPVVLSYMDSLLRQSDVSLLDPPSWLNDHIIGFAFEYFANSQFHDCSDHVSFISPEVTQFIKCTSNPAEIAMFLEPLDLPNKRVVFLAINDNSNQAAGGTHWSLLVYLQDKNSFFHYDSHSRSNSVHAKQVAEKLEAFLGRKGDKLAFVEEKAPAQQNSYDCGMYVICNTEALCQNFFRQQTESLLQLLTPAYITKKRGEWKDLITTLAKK

Caspase-3 = target: T3, Caspase-3 (Homo sapiens, UniProt P42574); test: SAR Analysis of small molecule inhibitors of Sentrin-specific proteases (SENPs) using a Caspase-3 Selectivity assay. [Related pubchem assays (depositor defined):AID2540, AID2599, AID434973, AID489001]; format: functional
T3 sequence (P42574 whole entry): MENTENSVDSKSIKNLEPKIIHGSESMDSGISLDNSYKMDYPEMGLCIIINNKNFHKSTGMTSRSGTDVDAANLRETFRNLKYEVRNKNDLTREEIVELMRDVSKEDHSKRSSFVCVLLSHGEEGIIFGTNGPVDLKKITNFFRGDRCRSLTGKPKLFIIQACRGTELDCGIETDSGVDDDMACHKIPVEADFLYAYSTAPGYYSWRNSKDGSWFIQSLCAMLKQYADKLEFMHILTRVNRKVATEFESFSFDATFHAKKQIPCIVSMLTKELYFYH

[6] = target: T4, Sentrin-specific protease 6 (Homo sapiens, UniProt Q9GZR1); test: SAR Analysis of small molecule inhibitors of Sentrin-specific protease 6 (SENP6) using a Luminescent assay. [Related pubchem assays (depositor defined):AID2582, AID2599]; format: functional
T4 sequence (Q9GZR1 whole entry): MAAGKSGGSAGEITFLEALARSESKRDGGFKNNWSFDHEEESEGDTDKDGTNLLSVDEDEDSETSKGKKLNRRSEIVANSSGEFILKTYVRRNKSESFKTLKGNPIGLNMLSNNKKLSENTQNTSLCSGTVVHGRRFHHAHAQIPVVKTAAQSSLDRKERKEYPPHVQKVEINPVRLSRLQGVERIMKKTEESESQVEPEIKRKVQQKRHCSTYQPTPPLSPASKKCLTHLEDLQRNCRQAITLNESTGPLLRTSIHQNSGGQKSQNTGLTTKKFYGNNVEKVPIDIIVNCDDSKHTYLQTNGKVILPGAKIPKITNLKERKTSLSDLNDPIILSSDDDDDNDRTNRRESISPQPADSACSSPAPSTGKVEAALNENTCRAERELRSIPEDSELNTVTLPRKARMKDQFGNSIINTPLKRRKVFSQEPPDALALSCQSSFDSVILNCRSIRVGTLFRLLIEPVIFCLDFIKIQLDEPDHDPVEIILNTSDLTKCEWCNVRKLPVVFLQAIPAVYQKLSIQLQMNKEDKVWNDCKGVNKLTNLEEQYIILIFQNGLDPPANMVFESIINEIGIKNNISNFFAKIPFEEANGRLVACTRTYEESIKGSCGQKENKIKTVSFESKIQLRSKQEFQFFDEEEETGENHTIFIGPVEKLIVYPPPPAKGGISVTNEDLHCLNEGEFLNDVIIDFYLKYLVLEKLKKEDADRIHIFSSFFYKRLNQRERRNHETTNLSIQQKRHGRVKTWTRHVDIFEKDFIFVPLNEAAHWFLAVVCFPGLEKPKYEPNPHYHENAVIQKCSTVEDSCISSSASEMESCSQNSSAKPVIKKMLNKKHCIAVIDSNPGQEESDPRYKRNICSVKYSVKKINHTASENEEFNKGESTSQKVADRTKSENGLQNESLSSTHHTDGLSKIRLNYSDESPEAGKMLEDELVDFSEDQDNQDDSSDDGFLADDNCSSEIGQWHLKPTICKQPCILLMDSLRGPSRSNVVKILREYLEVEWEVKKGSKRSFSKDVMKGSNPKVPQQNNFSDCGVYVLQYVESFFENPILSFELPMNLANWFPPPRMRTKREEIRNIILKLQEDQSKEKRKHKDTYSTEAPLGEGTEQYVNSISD

HEK293 [7] = test: HEK cell cytotoxicity by LDH release, dose response, cytotoxicity control for IDE activator project, fluorescence, HEK cells (AID 588440); format: functional, cell-based; settings: Homo sapiens;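 further: cytotoxicity by LDH release measuring loss of membrane integrity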
[8] = target: Opioid receptors; mu & delta (Homo sapiens, UniProt P41143+P35372); test: agonists of MOR-DOR heterodimerization, dose response, cell-based, luminescence (AID 588407); format: functional
INS1 = test: beta cell apoptosis inhibitors, cytokine rescue, dose response, luminescence, retest (AID 449756); format: functional, cell-based; settings: Rattus norvegicus;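 further: cell death triggered by IL-1 beta plus TNF-alpha plus IFN-gamma mixture; protective hits raise ATP signal compared with cytokine alone wells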
HEK293 [9] = test: optical interference in Abeta FP readout, dose response, artefact control for IDE activator project, biochemical, fluorescence polarization (AID 588442); format: functional, cell-based; settings: Homo sapiens

O=C(Nc1ccc(Cl)cc1)N1CCN(c2ccnc3cc(Cl)ccc23)CC1
AC50 (Candida albicans [1]): 0.295 µM (active)
AC50 (Candida albicans [2]): 1.16 µM (active)
AC50 (Candida albicans [3]): 1.56 µM (active)

CC(C)CC(=O)N1CCN(c2ccnc3cc(Cl)ccc23)CC1
AC50 (Candida albicans [1]): 12.7 µM (active)
AC50 (Candida albicans [2]): 5.54 µM (active)
AC50 (Candida albicans [3]): 6.04 µM (active)

N#Cc1ccc(-c2nc(/C=C/c3ccc(F)cc3)no2)cc1
IC50 [4]: > 99 µM (inactive)
IC50 [5]: > 99 µM (inactive)
IC50 (Caspase-3): > 99 µM (inactive)
IC50 [6]: > 99 µM (inactive)

Clc1ccc(C(c2ccc(Cl)cc2)[n+]2ccn(CC(OCc3ccc(Cl)cc3Cl)c3ccc(Cl)cc3Cl)c2)cc1.[Cl-] (centres undefined) [CALMIDAZOLIUM CHLORIDE]
IC50 (HEK293 [7]): 2.01 µM (active)
EC50 [8]: > 3.426 µM
AC50 (INS1): 2.56 µM (active)
EC50 (HEK293 [9]): > 54.7 µM (inactive)
